Test results reported in the OligoGym collection.
After the bases stand the sugars from the 5' end (letter, count) and the backbone: PS all phosphorothioate, else s phosphorothioate and o phosphodiester by linkage. Methylation of C is not given here. e = 2'-O-(2-methoxyethyl) (MOE); k = constrained ethyl (cEt); d = 2'-deoxy (DNA); m = 2'-O-methyl

Biological target: HSD17B13
Details: ASO, HepaRG

Sequence | target mRNA inhibition (1 µM) | also measured
ATCTCTGGGACCAAGG (sugars k3 d10 k3, PS) | 72% | target mRNA inhibition (0.02 µM): 0%; target mRNA inhibition (0.078 µM): 0%; target mRNA inhibition (0.313 µM): 57%; target mRNA inhibition (1.25 µM): 78%; target mRNA inhibition (5 µM): 93%
ATCTCTTAGCTGTGCA (sugars k3 d10 k3, PS) | 63% | –
ATCTGTCTCCAATACA (sugars k3 d10 k3, PS) | 55% | –
ATCTTAAGATACCCAG (sugars k3 d10 k3, PS) | 70% | –
ATCTTAAGATACCCAG (sugars kkdddddddddkekek, PS) | 45% | –
ATCTUAAGATACCCAG (sugars k3 d1 m1 d8 k3, PS) | 55% | –
ATGAAGTTAGTATAGT (sugars kkdddddddddkekek, PS) | 34% | –
ATGAGTAGGCAACTGA (sugars k3 d10 k3, PS) | 61% | –
ATGATAATTTGGTGTC (sugars k3 d10 k3, PS) | 55% | –
ATGCATTAAAACTCTC (sugars k3 d10 k3, PS) | 12% | –
ATGCTACTTGAACAGT (sugars kkdddddddddkekek, PS) | 54% | –
ATGCUACTTGAACAGT (sugars k3 d1 m1 d8 k3, PS) | 46% | –
ATGGCTACAGATTGGA (sugars k3 d1 m1 d8 k3, PS) | 44% | –
ATGGTAAGCCCCATGC (sugars k3 d10 k3, PS) | 22% | –
ATGTAATAGCCAGTAC (sugars k3 d10 k3, PS) | 52% | –
ATGTAGTGTTTACAAG (sugars k3 d10 k3, PS) | 58% | –
ATGTATCTTATAAGAC (sugars k3 d1 m1 d8 k3, PS) | 3% | –
ATGTATCTTATAAGAC (sugars k3 d10 k3, PS) | 0% | –
ATGTCCTAGGATGTTG (sugars k3 d10 k3, PS) | 50% | –
ATGTGAAGAGCTGGTA (sugars kkdddddddddkekek, PS) | 54% | –
ATGTTATCTCAAGTCA (sugars k3 d10 k3, PS) | 79% | –
ATGTTTATGTAAGCAC (sugars k3 d9 k3 e1, PS) | 73% | target mRNA inhibition (0.02 µM): 6%; target mRNA inhibition (0.078 µM): 0%; target mRNA inhibition (0.313 µM): 39%; target mRNA inhibition (1.25 µM): 66%; target mRNA inhibition (5 µM): 70%
ATGTUTATGTAAGCAC (sugars k3 d1 m1 d8 k3, PS) | 45% | –
ATTAAGCAGAATTGTG (sugars k3 d10 k3, PS) | 8% | –
ATTACATATCAATGCC (sugars k3 d10 k3, PS) | 36% | –
ATTAGAAGTCAGCCCA (sugars k3 d10 k3, PS) | 42% | –
ATTATATGAGGTCTGT (sugars k3 d10 k3, PS) | 59% | –

Sequence | target mRNA inhibition (1 µM) | also measured
ATTATGAGGATCTGGA (sugars k3 d10 k3, PS) | 49% | –
ATTATGTGATTGAGTT (sugars k3 d10 k3, PS) | 46% | –
ATTCACCACGATTGTT (sugars k3 d10 k3, PS) | 0% | –
ATTCGAAACTATTCAT (sugars k3 d10 k3, PS) | 24% | –
ATTCGAATTTCTTCAA (sugars k3 d10 k3, PS) | 65% | –
ATTCTGTGGCATGGCT (sugars k3 d9 k3 e1, PS) | 68% | –
ATTCTGTGGCATGGCT (sugars kkdddddddddkekek, PS) | 55% | –
ATTGATATACGATGGA (sugars k3 d10 k3, PS) | 31% | –
ATTGCAGTTATTAGAA (sugars k3 d10 k3, PS) | 42% | –
ATTGGTAAGTATTCCA (sugars k3 d10 k3, PS) | 50% | –
ATTGTCTAAACATCTC (sugars k3 d9 k3 e1, PS) | 71% | –
ATTGTTAGCTAAGGGA (sugars k3 d10 k3, PS) | 22% | –
ATTGTTTAGCTGATAG (sugars k3 d10 k3, PS) | 61% | –
ATTTAGAATACGCTGA (sugars k3 d10 k3, PS) | 19% | –
ATTTATTGGTATGGTA (sugars k3 d10 k3, PS) | 46% | –
ATTTATTTGCTGGTCC (sugars k3 d10 k3, PS) | 47% | –
ATTTTACTGGGATACT (sugars k3 d10 k3, PS) | 49% | –
ATTTTTAATACGACTT (sugars k3 d10 k3, PS) | 35% | –
CAAAAGACTTTGAGAC (sugars k3 d1 m1 d8 k3, PS) | 25% | –
CAAAAGTGTCCTCGAT (sugars k3 d10 k3, PS) | 5% | –
CAAACTGCTACTGTGT (sugars k3 d10 k3, PS) | 57% | –
CAACGACTCCAAGTAG (sugars k3 d10 k3, PS) | 0% | –
CAACTTTTAGTCAGGT (sugars k3 d10 k3, PS) | 66% | –
CAAGAGGATAGTCCAT (sugars k3 d9 k3 e1, PS) | 64% | –
CAAGGGAACACTGTCA (sugars k3 d10 k3, PS) | 58% | –
CAAGTAGGAGTAGATG (sugars k3 d10 k3, PS) | 5% | –
CAAGTTTTCACCTCAG (sugars k3 d10 k3, PS) | 93% | target mRNA inhibition (0.02 µM): 17%; target mRNA inhibition (0.078 µM): 41%; target mRNA inhibition (0.313 µM): 75%; target mRNA inhibition (1.25 µM): 92%; target mRNA inhibition (5 µM): 95%
